The text below walks through data of PubChem BioAssay AID1745844 (Carcinogenic Potency Database (CPDB), 2022).

The data set has as its system rodent lifetime carcinogenesis bioassay, tumor incidence TD50. Kind of data set: carcinogenic potency in animals, long-term in vivo studies, CPDB compilation (AID 1745844).
The mark [1] stands for this setting: mouse, strain B6AKF1, females, oral dosing, site: any site (literature study), lesion: several types, types named in the paper, dosed 76 weeks, study length 76 weeks.
Where [2] appears, read: mouse, strain B6AKF1, females, oral dosing, site: liver, lesion: hepatoma, dosed 76 weeks, study length 76 weeks.
Setting [3] is: mouse, strain B6AKF1, females, oral dosing, site: lung, lesion: adenoma, dosed 76 weeks, study length 76 weeks.
Where [4] appears, read: mouse, strain B6AKF1, males, oral dosing, site: any site (literature study), lesion: several types, types named in the paper, dosed 76 weeks, study length 76 weeks.
Where [5] appears, read: mouse, strain B6AKF1, males, oral dosing, site: liver, lesion: hepatoma, dosed 76 weeks, study length 76 weeks.
Where [6] appears, read: mouse, strain B6AKF1, males, oral dosing, site: lung, lesion: adenoma, dosed 76 weeks, study length 76 weeks.
[7] abbreviates: mouse, strain B6C3F1, females, oral dosing, site: any site (literature study), lesion: several types, types named in the paper, dosed 76 weeks, study length 76 weeks.
Where [8] appears, read: mouse, strain B6C3F1, females, oral dosing, site: liver, lesion: hepatoma, dosed 76 weeks, study length 76 weeks.
[9] abbreviates: mouse, strain B6C3F1, females, oral dosing, site: lung, lesion: several types, types named in the paper, dosed 76 weeks, study length 76 weeks.
Setting [10] is: mouse, strain B6C3F1, males, oral dosing, site: any site (literature study), lesion: several types, types named in the paper, dosed 76 weeks, study length 76 weeks.
The mark [11] stands for this setting: mouse, strain B6C3F1, males, oral dosing, site: liver, lesion: hepatoma, dosed 76 weeks, study length 76 weeks.
Setting [12] is: rat, strain Osborne-Mendel, females, in feed, site: any site (literature study), lesion: several types, types named in the paper, dosed 80 weeks, study length 113 weeks.
The mark [13] stands for this setting: rat, strain Osborne-Mendel, males, in feed, site: any site (literature study), lesion: several types, types named in the paper, dosed 80 weeks, study length 113 weeks.

Calls of active or inactive are those of the source. No rule for the calls is given here.

Broadly, the TD50 is the 50% point of the dose-response relation for the toxic effect studied. Take `[Cu+2].[O-]c1cccc2cccnc12.[O-]c1cccc2cccnc12`: the TD50 under setting [1] is 2490 mg/kg/day (inactive); the TD50 under setting [4] was 11200 mg/kg/day (inactive); the TD50 under setting [5] was 967 mg/kg/day (inactive); the TD50 under setting [7] was 2490 mg/kg/day (inactive); the TD50 under setting [10] was 2050 mg/kg/day (inactive). In addition, the carcinogen call is “negative (inactive)” under setting [2]; “negative (inactive)” under setting [3]; “negative (inactive)” under setting [6]; “negative (inactive)” under setting [8]; “negative (inactive)” under setting [9]; “negative (inactive)” under setting [11]. The carcinogen call (mouse, strain B6C3F1, males, oral dosing, site: lung, lesion: several types, types named in the paper, dosed 76 weeks, study length 76 weeks) was “negative (inactive)”.

Regarding `Nc1c(Cl)c(Cl)nc(C(=O)O)c1Cl`, the carcinogen call is “negative (inactive)” (mouse, strain B6C3F1, females, in feed, site: any site (literature study), lesion: several types, types named in the paper, dosed 80 weeks, study length 90 weeks); “negative (inactive)” (mouse, strain B6C3F1, males, in feed, site: any site (literature study), lesion: several types, types named in the paper, dosed 80 weeks, study length 90 weeks); “negative (inactive)” (rat, strain Fischer 344, females, in feed, site: thyroid gland, lesion: parafollicular-cell adenoma, dosed 104 weeks, study length 104 weeks); “negative (inactive)” under setting [12]. The TD50 (mouse, strain B6C3F1, females, in feed, site: liver, lesion: hepatocellular adenoma + hepatocellular carcinoma + neoplastic nodule, dosed 80 weeks, study length 90 weeks) was 20100 mg/kg/day; the TD50 (rat, strain Fischer 344, females, in feed, site: liver, lesion: hepatocellular adenoma, dosed 104 weeks, study length 104 weeks) is 15800 mg/kg/day (inactive); the TD50 (rat, strain Fischer 344, males, in feed, site: liver, lesion: hepatocellular adenoma, dosed 104 weeks, study length 104 weeks) is 5560 mg/kg/day (inactive); the TD50 (rat, strain Fischer 344, males, in feed, site: liver, lesion: hepatocellular carcinoma, dosed 104 weeks, study length 104 weeks) is 8710 mg/kg/day (inactive); the TD50 (rat, strain Osborne-Mendel, females, in feed, site: liver, lesion: hepatocellular adenoma + hepatocellular carcinoma + neoplastic nodule, dosed 80 weeks, study length 113 weeks) amounted to 1640 mg/kg/day; the TD50 (rat, strain Osborne-Mendel, females, in feed, site: liver, lesion: neoplastic nodule, dosed 80 weeks, study length 111 weeks) is 1700 mg/kg/day. The TD50 runs as follows: under setting [13], 2930 mg/kg/day (inactive); (rat, strain Osborne-Mendel, males, in feed, site: liver, lesion: hepatocellular adenoma + hepatocellular carcinoma + neoplastic nodule, dosed 80 weeks, study length 113 weeks) 1320 mg/kg/day.

Regarding `COc1c(Cl)c(Cl)c(Cl)c(Cl)c1Cl`, the TD50 (mouse, strain B6C3F1, females, by gavage, site: any site (literature study), lesion: several types, types named in the paper, dosed 103 weeks, study length 104 weeks) was 47.5 mg/kg/day (inactive); the TD50 (mouse, strain B6C3F1, females, by gavage, site: liver, lesion: hepatocellular adenoma + hepatocellular carcinoma + neoplastic nodule, dosed 103 weeks, study length 104 weeks) amounted to 63 mg/kg/day; the TD50 (mouse, strain B6C3F1, females, by gavage, site: lung, lesion: alveolar/bronchiolar adenoma + alveolar/bronchiolar carcinoma, dosed 103 weeks, study length 104 weeks) is 776 mg/kg/day; the TD50 (mouse, strain B6C3F1, males, by gavage, site: adrenal medulla + liver, lesion: pheochromocytoma, benign + hemangiosarcoma, dosed 103 weeks, study length 104 weeks) amounted to 38.3 mg/kg/day; the TD50 (mouse, strain B6C3F1, males, by gavage, site: adrenal medulla, lesion: pheochromocytoma, benign, dosed 103 weeks, study length 104 weeks) is 77.4 mg/kg/day; the TD50 (mouse, strain B6C3F1, males, by gavage, site: any site (literature study), lesion: several types, types named in the paper, dosed 103 weeks, study length 104 weeks) stood at 40.2 mg/kg/day. Also, the TD50 runs as follows: (mouse, strain B6C3F1, males, by gavage, site: liver, lesion: hemangiosarcoma, dosed 103 weeks, study length 104 weeks) 68 mg/kg/day; (rat, strain Fischer 344, females, by gavage, site: adrenal medulla, lesion: pheochromocytoma, benign, dosed 103 weeks, study length 104 weeks) 174 mg/kg/day; (rat, strain Fischer 344, females, by gavage, site: liver, lesion: hepatocellular adenoma + hepatocellular carcinoma + neoplastic nodule, dosed 103 weeks, study length 104 weeks) 1180 mg/kg/day; (rat, strain Fischer 344, males, by gavage, site: adrenal medulla, lesion: pheochromocytoma, benign, dosed 103 weeks, study length 104 weeks) 24.8 mg/kg/day; (rat, strain Fischer 344, males, by gavage, site: adrenal medulla, lesion: pheochromocytoma, malignant + pheochromocytoma, benign, dosed 103 weeks, study length 104 weeks) 30 mg/kg/day; (rat, strain Fischer 344, males, by gavage, site: liver, lesion: hepatocellular adenoma + hepatocellular carcinoma + neoplastic nodule, dosed 103 weeks, study length 104 weeks) 6460 mg/kg/day.

Take `Nc1nnc(-c2ccc([N+](=O)[O-])o2)o1`: the TD50 by setting is: (rat, strain Sprague-Dawley, females, in feed, site: any site (literature study), lesion: several types, types named in the paper, dosed 46 weeks, study length 66 weeks) 2.74 mg/kg/day; (rat, strain Sprague-Dawley, females, in feed, site: forestomach, lesion: squamous-cell papilloma, dosed 46 weeks, study length 66 weeks) 37 mg/kg/day; (rat, strain Sprague-Dawley, females, in feed, site: kidney/pelvis, lesion: transitional-cell carcinoma, dosed 46 weeks, study length 66 weeks) 45.2 mg/kg/day; (rat, strain Sprague-Dawley, females, in feed, site: lung, lesion: alveolar-cell carcinoma, dosed 46 weeks, study length 66 weeks) 242 mg/kg/day; (rat, strain Sprague-Dawley, females, in feed, site: mammary gland, lesion: adenocarcinoma, dosed 46 weeks, study length 66 weeks) 7.98 mg/kg/day; (rat, strain Sprague-Dawley, females, in feed, site: mammary gland, lesion: several types, types named in the paper, dosed 46 weeks, study length 66 weeks) 3.67 mg/kg/day.

As to `O=C1C2CC=CCC2C(=O)N1SC(Cl)(Cl)Cl` (centres undefined), the carcinogen call reads like this: under setting [1], “negative (inactive)”; under setting [2], “negative (inactive)”; under setting [3], “negative (inactive)”; (mouse, strain B6C3F1, females, in feed, site: any site (literature study), lesion: several types, types named in the paper, dosed 80 weeks, study length 91 weeks) “negative (inactive)”; under setting [8], “negative (inactive)”; under setting [9], “negative (inactive)”. Besides, the carcinogen call reads like this: (mouse, strain B6C3F1, males, in feed, site: any site (literature study), lesion: several types, types named in the paper, dosed 80 weeks, study length 91 weeks) “negative (inactive)”; under setting [12], “negative (inactive)”. Further, the TD50 is 161 mg/kg/day (inactive) under setting [4]; 195 mg/kg/day (inactive) under setting [5]; 3620 mg/kg/day (inactive) under setting [6]; 21600 mg/kg/day (mouse, strain B6C3F1, females, in feed, site: duodenum, lesion: adenocarcinoma in adenomatous polyp, dosed 80 weeks, study length 90 weeks); 244 mg/kg/day (inactive) under setting [7]; 15100 mg/kg/day (mouse, strain B6C3F1, males, in feed, site: duodenum, lesion: adenocarcinoma in adenomatous polyp, dosed 80 weeks, study length 90 weeks). The TD50 by setting is: (mouse, strain B6C3F1, males, in feed, site: duodenum, lesion: adenomatous polyp, NOS or adenocarcinoma in adenomatous polyp, dosed 80 weeks, study length 90 weeks) 7390 mg/kg/day; under setting [10], 42.5 mg/kg/day (inactive); under setting [11], 86.1 mg/kg/day (inactive); (mouse, strain B6C3F1, males, oral dosing, site: lung, lesion: adenoma, dosed 76 weeks, study length 76 weeks) 187 mg/kg/day (inactive); (mouse, strain Charles River CD1, females, in feed, site: small intestine, lesion: adenoma, dosed 113 weeks, study length 113 weeks) 13300 mg/kg/day; (mouse, strain Charles River CD1, females, in feed, site: small intestine, lesion: carcinoma, dosed 113 weeks, study length 113 weeks) 2110 mg/kg/day. In addition, the TD50 runs as follows: (mouse, strain Charles River CD1, females, in feed, site: small intestine, lesion: several types, types named in the paper, dosed 113 weeks, study length 113 weeks) 1740 mg/kg/day; (mouse, strain Charles River CD1, males, in feed, site: small intestine, lesion: adenoma, dosed 113 weeks, study length 113 weeks) 8280 mg/kg/day; (mouse, strain Charles River CD1, males, in feed, site: small intestine, lesion: carcinoma, dosed 113 weeks, study length 113 weeks) 3500 mg/kg/day; (mouse, strain Charles River CD1, males, in feed, site: small intestine, lesion: several types, types named in the paper, dosed 113 weeks, study length 113 weeks) 2690 mg/kg/day; (rat, strain Charles River CD (Sprague-Dawley), females, in feed, site: kidney, lesion: several types, types named in the paper, dosed 104 weeks, study length 104 weeks) 17900 mg/kg/day; (rat, strain Charles River CD (Sprague-Dawley), females, in feed, site: kidney, lesion: tubule carcinoma, dosed 104 weeks, study length 104 weeks) 17900 mg/kg/day. In addition, the TD50 (rat, strain Charles River CD (Sprague-Dawley), males, in feed, site: kidney, lesion: several types, types named in the paper, dosed 104 weeks, study length 104 weeks) is 2690 mg/kg/day; the TD50 (rat, strain Charles River CD (Sprague-Dawley), males, in feed, site: kidney, lesion: tubule adenoma, dosed 104 weeks, study length 104 weeks) amounted to 3810 mg/kg/day; the TD50 (rat, strain Charles River CD (Sprague-Dawley), males, in feed, site: kidney, lesion: tubule carcinoma, dosed 104 weeks, study length 104 weeks) was determined as 11500 mg/kg/day; the TD50 (rat, strain Osborne-Mendel, females, in feed, site: adrenal gland, lesion: cortical adenoma + cortical carcinoma, dosed 80 weeks, study length 109 weeks) is 253 mg/kg/day (inactive); the TD50 under setting [13] is 4780 mg/kg/day (inactive); the TD50 (rat, strain Wistar, females, in feed, site: uterus, lesion: sarcoma, dosed 130 weeks, study length 130 weeks) was 1700 mg/kg/day.

For `O=[N+]([O-])c1ccc(-c2nc(N(CCO)CCO)c3ccccc3n2)s1`, the TD50 by setting is: (rat, strain Sprague-Dawley, males, in feed, site: any site (literature study), lesion: several types, types named in the paper, dosed 50 weeks, study length 52 weeks) 1.1 mg/kg/day; (rat, strain Sprague-Dawley, males, in feed, site: mammary gland, lesion: adenocarcinoma, dosed 50 weeks, study length 52 weeks) 11.5 mg/kg/day; (rat, strain Sprague-Dawley, males, in feed, site: mammary gland, lesion: several types, types named in the paper, dosed 50 weeks, study length 52 weeks) 6.45 mg/kg/day; (rat, strain Sprague-Dawley, males, in feed, site: small intestine, lesion: leiomyosarcoma, dosed 50 weeks, study length 52 weeks) 3.6 mg/kg/day; (rat, strain Sprague-Dawley, males, in feed, site: small intestine, lesion: sarcoma, dosed 50 weeks, study length 52 weeks) 3.14 mg/kg/day.
